Reference: patent US11905294B2, “Imidazo[1,5-a]pyrazine derivatives as PI3Kδ inhibitors” (BEIGENE, LTD., priority 2017, dated 2024)
Where two headings read alike, the source gives them in different places.

Legend:
PI3K (p110δ/p85α) = PI3K (p110δ/p85α) (Homo sapiens, UniProt O00329); test: PI3Kδ assay (ADP-Glo Kinase Assay); format: biochemical; conditions: recombinant enzyme; IC50 (nM) or max inhibition (%) at 0.5 μM
Outline: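 Recombinant p110δ/p85α with lipid substrate and serially diluted compound, 0.5 hr RT preincubation; ATP-started reaction ran 1 hr at RT. ADP formed read by ADP-Glo luminescence; IC50 from four-parameter logistic fit of residual activity.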

PI3K (p110α/p85α) = PI3K (p110α/p85α) (Homo sapiens, UniProt P42336); test: PI3Kα assay (ADP-Glo Kinase Assay); format: biochemical; conditions: recombinant enzyme; IC50 (nM) or max inhibition (%) at 0.5 μM
PI3K (p110β/p85α) = PI3K (p110β/p85α) (Homo sapiens, UniProt P42338); test: PI3Kβ assay (ADP-Glo Kinase Assay); format: biochemical
PI3K (p110γ) = PI3K (p110γ) (Homo sapiens, UniProt P48736); test: PI3Kγ assay (ADP-Glo Kinase Assay); format: biochemical; conditions: recombinant enzyme; IC50 (nM) or max inhibition (%) at 0.5 μM
[1] = Pharmacokinetic properties in Sprague-Dawley rats after intravenous (IV) and oral (PO) administration; format: in vivo; conditions: rat; for AUC(0-inf) / clearance / half-life / Vd / Cmax / Tmax / bioavailability: male, Sprague-Dawley, plasma; for Vd: read-out: VdSS
Experimental: III. Pharmacokinetic Properties of Compounds in Sprague-Dawley Rats After Intravenous (IV) and Oral Administrations (PO)
The injection dosing solution was prepared as follows: 1.0 mg of a test compound was weighed and dissolved in 0.32 mL of dimethyl acetamide (DMA). The solution was then further diluted by 0.36 mL of ethanol and 0.32 mL of propylene glycol. The final concentration of the test compound was 1.0 mg·mL^−1.
The oral dosing solution was prepared as follows: 5.0 mg of a test compound was weighed and dispersed in […] of 0.5% methyl cellulose (MC). The final concentration of the test compound is 1 mg·mL^−1.
Male Sprague-Dawley rats (also summarized in Table 2) were housed in solid bottom polypropylene cages with sterilized bedding and receive sterilized diet and sterilized water. The room was controlled and monitored for humidity (targeted mean range 40% to 70%) and temperature (targeted mean range 18° C. to 26° C.) with 10 to 20 air changes/hour. The light cycle was maintained at 12-h light and 12-h dark. Only animals that appeared to be healthy were selected for this study based on overall health, body weight, or other relevant information.
Three rats were given a single IV dose of 1 mg·kg^−1 via tail vein injection and other three rats were given a single oral dose of 5 or 10 mg·kg^−1. The dosing solutions were freshly prepared prior to dose administration. The actual body weights and actual volume injected were recorded accordingly. Four hours after dosing, the rats were allowed to intake food.
Blood samples (˜150 μL) were collected at different times from the jugular vein catheter into EDTA-K2 coated tubes. Whole blood was processed by centrifugation at 3000 g for 10 min. Plasma samples were collected and kept at −80° C. freezer prior to analysis. The blood sampling time was recorded accordingly.
The dose samples of IV and PO were diluted with MeOH: H2O (4:1, v/v) to achieve the concentration of 2 μg·mL^−1, respectively. Then, 2.5 μL of the diluted samples were added with 47.5 μL blank plasma, and then were handled as the plasma sample procedure. An aliquot of 10 μL of the mixture was injected into the LC-MS/MS system.

[2] = read-out: Enzyme activity IC50 PI3Kβ

Sequence of PI3K (p110α/p85α) (P42336 whole entry): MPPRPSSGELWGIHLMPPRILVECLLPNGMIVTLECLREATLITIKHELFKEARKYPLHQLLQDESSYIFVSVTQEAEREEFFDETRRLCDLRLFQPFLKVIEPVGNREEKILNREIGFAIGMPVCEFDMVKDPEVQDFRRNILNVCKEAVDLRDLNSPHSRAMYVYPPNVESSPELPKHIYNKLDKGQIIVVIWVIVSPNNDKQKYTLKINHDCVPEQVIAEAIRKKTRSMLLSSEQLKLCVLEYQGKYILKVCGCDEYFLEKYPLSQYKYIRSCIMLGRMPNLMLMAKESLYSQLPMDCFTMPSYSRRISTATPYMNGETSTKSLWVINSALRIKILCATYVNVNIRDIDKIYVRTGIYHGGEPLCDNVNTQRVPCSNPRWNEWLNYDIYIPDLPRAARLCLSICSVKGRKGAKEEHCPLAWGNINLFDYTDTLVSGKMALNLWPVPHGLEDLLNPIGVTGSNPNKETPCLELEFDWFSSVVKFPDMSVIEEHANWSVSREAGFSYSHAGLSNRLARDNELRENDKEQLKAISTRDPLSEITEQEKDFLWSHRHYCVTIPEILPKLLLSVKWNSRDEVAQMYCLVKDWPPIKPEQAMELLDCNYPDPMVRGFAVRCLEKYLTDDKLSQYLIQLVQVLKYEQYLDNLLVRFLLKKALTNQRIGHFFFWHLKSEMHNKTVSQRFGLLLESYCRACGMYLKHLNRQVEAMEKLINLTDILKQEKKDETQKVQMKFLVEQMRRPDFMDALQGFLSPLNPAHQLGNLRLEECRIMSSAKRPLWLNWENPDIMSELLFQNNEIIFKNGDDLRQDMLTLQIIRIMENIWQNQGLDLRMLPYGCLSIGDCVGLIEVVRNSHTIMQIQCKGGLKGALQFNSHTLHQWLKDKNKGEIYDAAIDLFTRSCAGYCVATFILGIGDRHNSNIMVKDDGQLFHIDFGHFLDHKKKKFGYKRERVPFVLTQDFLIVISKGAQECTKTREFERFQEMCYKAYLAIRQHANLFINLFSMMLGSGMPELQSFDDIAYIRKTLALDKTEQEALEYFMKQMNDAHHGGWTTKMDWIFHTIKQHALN
Sequence of PI3K (p110α/p85α) (P27986 whole entry partner): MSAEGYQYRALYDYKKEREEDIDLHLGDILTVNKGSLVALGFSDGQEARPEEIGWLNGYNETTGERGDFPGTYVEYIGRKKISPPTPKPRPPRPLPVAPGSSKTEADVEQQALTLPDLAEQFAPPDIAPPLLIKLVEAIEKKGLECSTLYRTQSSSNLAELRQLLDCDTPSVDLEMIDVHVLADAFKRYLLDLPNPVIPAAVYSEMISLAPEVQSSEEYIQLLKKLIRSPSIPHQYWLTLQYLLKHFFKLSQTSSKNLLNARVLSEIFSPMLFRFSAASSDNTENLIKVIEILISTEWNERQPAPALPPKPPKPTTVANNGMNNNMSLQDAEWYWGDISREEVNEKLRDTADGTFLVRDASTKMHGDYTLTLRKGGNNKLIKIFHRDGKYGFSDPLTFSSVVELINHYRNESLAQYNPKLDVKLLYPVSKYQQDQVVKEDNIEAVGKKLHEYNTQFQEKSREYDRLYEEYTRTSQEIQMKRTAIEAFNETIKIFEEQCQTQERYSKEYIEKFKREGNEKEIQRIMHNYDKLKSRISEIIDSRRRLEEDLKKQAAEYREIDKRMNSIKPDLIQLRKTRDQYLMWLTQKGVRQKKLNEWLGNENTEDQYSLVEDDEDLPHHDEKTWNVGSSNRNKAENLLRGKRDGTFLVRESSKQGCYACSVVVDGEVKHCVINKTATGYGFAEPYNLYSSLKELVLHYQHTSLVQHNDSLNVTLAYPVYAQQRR
Sequence of PI3K (p110γ) (P48736 whole entry): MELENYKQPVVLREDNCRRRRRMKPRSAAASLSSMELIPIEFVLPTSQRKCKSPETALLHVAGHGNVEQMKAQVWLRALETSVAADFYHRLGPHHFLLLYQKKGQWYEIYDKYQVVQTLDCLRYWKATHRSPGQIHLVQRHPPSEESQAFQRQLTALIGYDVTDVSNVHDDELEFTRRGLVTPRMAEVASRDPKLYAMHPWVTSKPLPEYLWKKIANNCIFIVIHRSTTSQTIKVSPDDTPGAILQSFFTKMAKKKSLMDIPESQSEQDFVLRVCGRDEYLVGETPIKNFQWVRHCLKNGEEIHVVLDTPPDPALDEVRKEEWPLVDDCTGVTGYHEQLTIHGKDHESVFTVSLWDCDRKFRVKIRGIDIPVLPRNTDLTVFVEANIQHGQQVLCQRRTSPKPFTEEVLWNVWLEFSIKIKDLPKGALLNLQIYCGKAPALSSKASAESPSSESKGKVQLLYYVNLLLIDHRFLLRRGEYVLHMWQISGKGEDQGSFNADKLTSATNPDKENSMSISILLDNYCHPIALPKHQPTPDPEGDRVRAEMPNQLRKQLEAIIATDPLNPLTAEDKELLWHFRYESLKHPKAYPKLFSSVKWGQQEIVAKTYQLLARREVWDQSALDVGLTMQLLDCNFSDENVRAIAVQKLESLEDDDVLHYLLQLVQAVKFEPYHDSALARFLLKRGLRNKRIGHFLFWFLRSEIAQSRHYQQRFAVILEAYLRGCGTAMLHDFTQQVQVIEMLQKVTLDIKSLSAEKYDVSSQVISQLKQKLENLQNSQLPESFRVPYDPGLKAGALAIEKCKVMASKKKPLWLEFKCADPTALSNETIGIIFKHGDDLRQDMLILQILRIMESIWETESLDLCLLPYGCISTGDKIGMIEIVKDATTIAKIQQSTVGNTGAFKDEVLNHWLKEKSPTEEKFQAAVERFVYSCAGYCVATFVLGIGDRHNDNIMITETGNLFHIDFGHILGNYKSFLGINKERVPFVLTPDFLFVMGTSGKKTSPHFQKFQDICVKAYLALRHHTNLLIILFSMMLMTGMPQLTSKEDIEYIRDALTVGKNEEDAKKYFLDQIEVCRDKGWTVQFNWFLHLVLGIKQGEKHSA
Sequence of PI3K (p110β/p85α) (P42338 whole entry): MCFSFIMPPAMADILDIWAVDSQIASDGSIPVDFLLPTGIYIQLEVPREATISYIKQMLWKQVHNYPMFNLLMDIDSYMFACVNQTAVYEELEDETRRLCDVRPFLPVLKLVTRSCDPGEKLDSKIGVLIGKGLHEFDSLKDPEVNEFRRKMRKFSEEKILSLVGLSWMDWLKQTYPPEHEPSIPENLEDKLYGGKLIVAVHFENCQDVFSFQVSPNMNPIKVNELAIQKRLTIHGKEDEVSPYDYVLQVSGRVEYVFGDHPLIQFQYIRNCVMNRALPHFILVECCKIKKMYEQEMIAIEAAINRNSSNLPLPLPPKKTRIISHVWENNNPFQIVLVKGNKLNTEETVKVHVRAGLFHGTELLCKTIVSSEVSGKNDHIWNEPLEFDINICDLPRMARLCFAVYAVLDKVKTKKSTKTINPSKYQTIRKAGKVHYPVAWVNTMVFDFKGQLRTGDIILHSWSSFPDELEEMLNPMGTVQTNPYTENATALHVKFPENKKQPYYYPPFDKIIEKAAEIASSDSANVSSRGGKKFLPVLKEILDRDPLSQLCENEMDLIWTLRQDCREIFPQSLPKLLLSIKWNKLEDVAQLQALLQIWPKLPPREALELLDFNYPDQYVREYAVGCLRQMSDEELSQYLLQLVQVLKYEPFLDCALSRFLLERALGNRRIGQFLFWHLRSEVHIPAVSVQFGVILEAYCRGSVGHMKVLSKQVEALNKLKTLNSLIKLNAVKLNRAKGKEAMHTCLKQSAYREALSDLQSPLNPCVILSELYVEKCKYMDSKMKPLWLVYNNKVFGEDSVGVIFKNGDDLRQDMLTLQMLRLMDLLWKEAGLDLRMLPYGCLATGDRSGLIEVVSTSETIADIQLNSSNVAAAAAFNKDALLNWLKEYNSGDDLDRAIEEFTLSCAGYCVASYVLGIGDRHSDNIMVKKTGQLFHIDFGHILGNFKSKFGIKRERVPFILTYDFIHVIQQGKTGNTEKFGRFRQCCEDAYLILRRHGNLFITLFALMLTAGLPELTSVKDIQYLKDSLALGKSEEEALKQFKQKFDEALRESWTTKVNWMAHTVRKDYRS
Sequence of PI3K (p110β/p85α) (P27986 whole entry partner): as the sequence (P27986 whole entry partner) above
Sequence of PI3K (p110δ/p85α) (O00329 whole entry): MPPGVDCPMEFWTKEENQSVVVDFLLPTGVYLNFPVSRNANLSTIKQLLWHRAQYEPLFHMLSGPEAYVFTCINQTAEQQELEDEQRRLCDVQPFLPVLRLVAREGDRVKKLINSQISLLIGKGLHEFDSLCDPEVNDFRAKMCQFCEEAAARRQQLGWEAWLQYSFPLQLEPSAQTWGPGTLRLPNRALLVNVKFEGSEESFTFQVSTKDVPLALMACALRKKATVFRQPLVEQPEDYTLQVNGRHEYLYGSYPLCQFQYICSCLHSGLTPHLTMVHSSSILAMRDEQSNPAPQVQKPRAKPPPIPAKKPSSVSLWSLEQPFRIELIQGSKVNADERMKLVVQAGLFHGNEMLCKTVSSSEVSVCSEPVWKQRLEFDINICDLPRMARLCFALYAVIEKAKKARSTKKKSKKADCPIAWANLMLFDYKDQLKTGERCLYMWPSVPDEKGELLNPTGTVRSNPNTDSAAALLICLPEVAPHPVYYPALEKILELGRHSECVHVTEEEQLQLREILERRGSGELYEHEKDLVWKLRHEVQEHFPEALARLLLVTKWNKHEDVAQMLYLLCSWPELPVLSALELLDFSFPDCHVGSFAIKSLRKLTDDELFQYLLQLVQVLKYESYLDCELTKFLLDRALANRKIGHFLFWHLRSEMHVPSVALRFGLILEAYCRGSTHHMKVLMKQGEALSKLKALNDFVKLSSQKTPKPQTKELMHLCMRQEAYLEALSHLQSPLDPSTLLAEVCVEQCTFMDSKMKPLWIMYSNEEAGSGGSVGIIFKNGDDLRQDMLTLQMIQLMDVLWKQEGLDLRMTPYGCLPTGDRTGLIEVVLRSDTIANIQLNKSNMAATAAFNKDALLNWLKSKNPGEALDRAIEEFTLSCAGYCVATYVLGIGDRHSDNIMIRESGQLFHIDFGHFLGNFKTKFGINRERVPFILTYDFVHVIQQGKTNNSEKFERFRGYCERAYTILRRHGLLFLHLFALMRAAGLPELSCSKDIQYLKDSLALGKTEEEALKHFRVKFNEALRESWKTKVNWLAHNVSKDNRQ
Sequence of PI3K (p110δ/p85α) (P27986 whole entry partner): as the sequence (P27986 whole entry partner) above

Compound	IC50 (PI3K (p110δ/p85α))	IC50 (PI3K (p110α/p85α))	IC50 (PI3K (p110β/p85α); [2])	IC50 (PI3K (p110γ))	also measured
Cc1nc([C@@H](C)c2cc(Cl)c(F)c(C(=O)NCC3(O)CC3)c2OC(C)C)n2ccnc(N)c12 [Compound 66, (S)-3(1-(8-amino-1-methylimidazo[1,5-a]pyrazin-3-yl)ethyl)-5-chloro-6-fluoro-N-((1-hydroxycyclopropyl)methyl)-2-isopropoxybenzamide]	2.2 nM	14000 nM	12000 nM	3400 nM	–
Cc1nc([C@@H](C)c2cc(Cl)c(F)c(C(=O)N3CC4(CCOC4)C3)c2OC(C)C)n2ccnc(N)c12 [Compound 68, (S)-(3-(1-(8-amino-1-methylimidazo[1,5-a]pyrazin-3-yl)ethyl)-5-chloro-6-fluoro-2-isopropoxyphenyl)(6-oxa-2-azaspiro[3.4]octan-2-yl)methanone]	1.7 nM	40000 nM	23000 nM	4600 nM	–
CO[C@@H]1CCCN(C(=O)c2c(F)c(Cl)cc([C@H](C)c3nc(C)c4c(N)nccn34)c2OC(C)C)C1 [Compound 69, (3-((S)-1-(8-amino-1-methylimidazo[1,5-a]pyrazin-3-yl)ethyl)-5-chloro-6-fluoro-2-isopropoxyphenyl)((R)-3-methoxypiperidin-1-yl)methanone]	2 nM	> 50000 nM	> 50000 nM	5200 nM	–
CO[C@H]1CCN(C(=O)c2c(F)c(Cl)cc([C@H](C)c3nc(C)c4c(N)nccn34)c2OC(C)C)C1 [Compound 70, (3-((S)-1-(8-amino-1-methylimidazo[1,5-a]pyrazin-3-yl)ethyl)-5-chloro-6-fluoro-2-isopropoxyphenyl)((S)-3-methoxypyrrolidin-1-yl)methanone]	1.9 nM	41000 nM	> 50000 nM	6700 nM	–
Cc1nc([C@@H](C)c2cc(Cl)c(F)c(C(=O)NCCN3CCN(C)CC3)c2OC(C)C)n2ccnc(N)c12 [Compound 73, (S)-3-(1-(8-amino-1-methylimidazo[1,5-a]pyrazin-3-yl)ethyl)-5-chloro-6-fluoro-2-isopropoxy-N-(2-(4-methylpiperazin-1-yl)ethyl)benzamide]	2.8 nM	14000 nM	14000 nM	9500 nM	AUC(0-inf) ([1]; 1 mg/kg, IV 1 mpk): 194 ng·h/mL; clearance ([1]; 1 mg/kg, IV 1 mpk): 86.6 mL/min/kg; half-life ([1]; 1 mg/kg, IV 1 mpk): 8.2 h; Vd ([1]; 1 mg/kg, IV 1 mpk): 59.4 L/kg; AUC(0-inf) ([1]; 10 mg/kg, PO 10 mpk): 918 ng·h/mL; Cmax ([1]; 10 mg/kg, PO 10 mpk): 220 ng/mL; Tmax ([1]; 10 mg/kg, PO 10 mpk): 1.5 h; half-life ([1]; 10 mg/kg, PO 10 mpk): 5.6 h; bioavailability ([1]; 10 mg·kg^−1, PO 10 mpk vs IV 1 mpk): 34.9%; half-life (in words) ([1]; in vivo): unexpected long half-life
(S)-3-(1-(8-amino-1-methylimidazol[1,5-a]pyrazin-3-yl)ethyl)-5-chloro-6-fluoro-2-isopropoxy-N-(4-methoxyphenyl)benzamide [Compound 29]	1.1 nM	11000 nM	–	2100 nM	IC50 (PI3K (p110β/p85α); recombinant enzyme, 2 hrs kinase reaction, IC50 (nM) or max inhibition (%) at 0.5 μM): 9900 nM

Second part, led by results:

IC50 (PI3K (p110δ/p85α))	IC50 (PI3K (p110α/p85α))	IC50 (PI3K (p110β/p85α); [2])	IC50 (PI3K (p110γ))	Compound	also measured
0.95 nM	11000 nM	35000 nM	6300 nM	Cc1nc([C@@H](C)c2cc(Cl)c(F)c(C(=O)N[C@H]3CC[C@H](O)CC3)c2OC(C)C)n2ccnc(N)c12 [Compound 60, 3((S)-1-(8-amino-1-methylimidazo[1,5-a]pyrazin-3-yl)ethyl)-5-chloro-6-fluoro-N-((trans)-4-hydroxycyclohexyl)-2-isopropoxybenzamide]	AUC(0-inf) ([1]; 1 mg/kg, IV 1 mpk): 218 ng·h/mL; clearance ([1]; 1 mg/kg, IV 1 mpk): 76.6 mL/min/kg; half-life ([1]; 1 mg/kg, IV 1 mpk): 0.6 h; Vd ([1]; 1 mg/kg, IV 1 mpk): 3.3 L/kg; AUC(0-inf) ([1]; 5 mg/kg, PO 5 mpk): 159 ng·h/mL; Cmax ([1]; 5 mg/kg, PO 5 mpk): 133 ng/mL; Tmax ([1]; 5 mg/kg, PO 5 mpk): 0.3 h; half-life ([1]; 5 mg/kg, PO 5 mpk): 2 h; bioavailability ([1]; 5 mg·kg^−1, PO 5 mpk vs IV 1 mpk): 14.6%
1.6 nM	> 50000 nM	> 50000 nM	14000 nM	Cc1nc([C@@H](C)c2cc(Cl)c(F)c(C(=O)N3CCC4(CC3)COC4)c2OC(C)C)n2ccnc(N)c12 [Compound 64, (S)-(3-(1-(8-amino-1-methylimidazo[1,5-a]pyrazin-3-yl)ethyl)-5-chloro-6-fluoro-2-isopropoxyphenyl)(2-oxa-7-azaspiro[3.5]nonan-7-yl)methanone]	–
1.4 nM	14000 nM	13000 nM	3400 nM	Cc1nc([C@@H](C)c2cc(Cl)c(F)c(C(=O)N[C@H]3CC[C@H](O)C3)c2OC(C)C)n2ccnc(N)c12 [Compound 71, 3-((S)-1-(8-amino-1-methylimidazo[1,5-a]pyrazin-3-yl)ethyl)-5-chloro-6-fluoro-N-((1S,3S)-3-hydroxycyclopentyl)-2-isopropoxybenzamide]	–
